Columns and labels:
Type in all cases: in vivo
Alopecurus myosuroides [1] = assay: Pre-emergence test; settings: 3 weeks after treatment
Protocol: (§1) To evaluate their herbicidal activity, compounds according to the invention are tested using a representative range of plants:
(§2) The pre-emergence tests involve spraying a liquid formulation of the compound onto the soil in which the seeds of the plant species mentioned above has recently been sown.
(§3) The soil used in the tests is a prepared horticultural loam. The formulations used in the tests are prepared from solutions of the test compounds in acetone containing 0.4% by weight of an alkyl-phenol/ethylene oxide condensate available under the trade mark TRITON X-155. These acetone solutions are diluted with water and the resulting formulations applied at dosage levels corresponding to 0.013 kg, 0.025 kg, 0.100 kg or 0.400 kg of active material per hectare in a volume equivalent to 900 litres per hectare. In these tests untreated sown soil are used as controls. From 2 to 4 weeks after treatment, the tests are terminated and each pot is examined and rated according to the rating system set forth below: […]

Abutilon theophrasti [2] = assay: Pre-emergence test; settings: 0.400 kg/ha, 3 weeks after treatment
Protocol: as §1, §2, §3

Digitaria sanguinalis [3] = assay: Pre-emergence test; settings: 3 weeks after treatment
Protocol: as §1, §2, §3

Galium aparine [4] = assay: Pre-emergence test; settings: 3 weeks after treatment
Protocol: as §1, §2, §3

Echinochloa crus-galli [5] = assay: Pre-emergence test; settings: 3 weeks after treatment
Protocol: as §1, §2, §3

Setaria viridis [6] = assay: Pre-emergence test; settings: 3 weeks after treatment
Protocol: as §1, §2, §3

Triticum aestivum [7] = assay: Pre-emergence test; settings: 3 weeks after treatment
Protocol: as §1, §2, §3

Stellaria media [8] = assay: Pre-emergence test; settings: 3 weeks after treatment
Protocol: as §1, §2, §3

Ipomoea hederacea [9] = assay: Pre-emergence test; settings: 0.400 kg/ha, 3 weeks after treatment
Protocol: as §1, §2, §3

Glycine max [10] = assay: Pre-emergence test; settings: 0.400 kg/ha, 3 weeks after treatment
Protocol: as §1, §2, §3

Cassia obtusifolia [11] = assay: Pre-emergence test; settings: 3 weeks after treatment
Protocol: as §1, §2, §3

Orysa sativa [12] = assay: Pre-emergence test; settings: 3 weeks after treatment
Protocol: as §1, §2, §3

Zea mays [13] = assay: Pre-emergence test; settings: 3 weeks after treatment
Protocol: as §1, §2, §3

Matricaria inodora [14] = assay: Pre-emergence test; settings: 3 weeks after treatment
Protocol: as §1, §2, §3

Lamium purpureum = assay: Pre-emergence test; settings: 3 weeks after treatment
Protocol: as §1, §2, §3

Alopecurus myosuroides [15] = assay: Post-emergence herbicidal activity test; settings: 2-4 weeks after treatment
Protocol: as §1
(§4) These acetone solutions are diluted with water and the resulting formulations applied at dosage levels equivalent of about 0.025 to 0. 4 kg per hectare of test compound per pot. After spraying the plants are placed on greenhouse benches and are cared for in the usual manner, commensurate with conventional greenhouse practices. From 2 to 4 weeks after treatment, the seedling plants are examined and rated according to the rating system provided above.

Abutilon theophrasti [16] = assay: Post-emergence herbicidal activity test; settings: 2-4 weeks after treatment
Protocol: as §1, §4

Digitaria sanguinalis [17] = assay: Post-emergence herbicidal activity test; settings: 2-4 weeks after treatment
Protocol: as §1, §4

Galium aparine [18] = assay: Post-emergence herbicidal activity test; settings: 2-4 weeks after treatment
Protocol: as §1, §4

Echinochloa crus-galli [19] = assay: Post-emergence herbicidal activity test; settings: 2-4 weeks after treatment
Protocol: as §1, §4

Setaria viridis [20] = assay: Post-emergence herbicidal activity test; settings: 2-4 weeks after treatment
Protocol: as §1, §4

Triticum aestivum [21] = assay: Post-emergence herbicidal activity test; settings: 2-4 weeks after treatment
Protocol: as §1, §4

Stellaria media [22] = assay: Post-emergence herbicidal activity test; settings: 2-4 weeks after treatment
Protocol: as §1, §4

Ipomoea hederacea [23] = assay: Post-emergence herbicidal activity test; settings: 2-4 weeks after treatment
Protocol: as §1, §4

Glycine max [24] = assay: Post-emergence herbicidal activity test; settings: 2-4 weeks after treatment
Protocol: as §1, §4

Cassia obtusifolia [25] = assay: Post-emergence herbicidal activity test; settings: 2-4 weeks after treatment
Protocol: as §1, §4

Orysa sativa [26] = assay: Post-emergence herbicidal activity test; settings: 2-4 weeks after treatment
Protocol: as §1, §4

Zea mays [27] = assay: Post-emergence herbicidal activity test; settings: 2-4 weeks after treatment
Protocol: as §1, §4

Matricaria inodora [28] = assay: Post-emergence herbicidal activity test; settings: 2-4 weeks after treatment
Protocol: as §1, §4

In the case of `Cn1nc(C(F)(F)F)cc1Oc1cccc(C#Cc2ccccc2)n1` [Example 31], the “Assessment (pre-emergence application) ALOMY” value (Alopecurus myosuroides [1]; 0.025 kg/ha) is reported as 0 (0-No effect), the “Assessment (pre-emergence application) ALOMY” value (Alopecurus myosuroides [1]; 0.100 kg/ha) is reported as 1 (1-Trace effect) and the “Assessment (pre-emergence application) ALOMY” value (Alopecurus myosuroides [1]; 0.400 kg/ha) is reported as 3 (3-Moderate effect). For the same compound, the “Assessment (pre-emergence application) ABUTH” value (Abutilon theophrasti [2]) was 2 (2-Slight effect), the “Assessment (pre-emergence application) DIGSA” value (Digitaria sanguinalis [3]; 0.025 kg/ha) was 2 (2-Slight effect) and the “Assessment (pre-emergence application) DIGSA” value (Digitaria sanguinalis [3]; 0.100 kg/ha) was 5 (5-Definite injury). For the same compound, the “Assessment (pre-emergence application) DIGSA” value (Digitaria sanguinalis [3]; 0.400 kg/ha) was 8 (8-Approaching complete kill), the “Assessment (pre-emergence application) GALAP” value (Galium aparine [4]; 0.025 kg/ha) was 1 (1-Trace effect) and the “Assessment (pre-emergence application) GALAP” value (Galium aparine [4]; 0.100 kg/ha) was 2 (2-Slight effect). The “Assessment (pre-emergence application) ECHCG” value (Echinochloa crus-galli [5]; 0.025 kg/ha) was 0 (0-No effect), the “Assessment (pre-emergence application) ECHCG” value (Echinochloa crus-galli [5]; 0.100 kg/ha) was 2 (2-Slight effect) and the “Assessment (pre-emergence application) ECHCG” value (Echinochloa crus-galli [5]; 0.400 kg/ha) was 5 (5-Definite injury). The “Assessment (pre-emergence application) SETVI” value (Setaria viridis [6]; 0.025 kg/ha) was 2 (2-Slight effect), the “Assessment (pre-emergence application) SETVI” value (Setaria viridis [6]; 0.100 kg/ha) was 6 (6-Herbicidal effect) and the “Assessment (pre-emergence application) SETVI” value (Setaria viridis [6]; 0.400 kg/ha) was 8 (8-Approaching complete kill). The “Assessment (pre-emergence application) TRZWA” value (Triticum aestivum [7]; 0.025 kg/ha) was 0 (0-No effect), the “Assessment (pre-emergence application) TRZWA” value (Triticum aestivum [7]; 0.100 kg/ha) was 0 (0-No effect) and the “Assessment (pre-emergence application) TRZWA” value (Triticum aestivum [7]; 0.400 kg/ha) was 0 (0-No effect). The “Assessment (pre-emergence application) STEME” value (Stellaria media [8]; 0.025 kg/ha) was 2 (2-Slight effect), the “Assessment (pre-emergence application) STEME” value (Stellaria media [8]; 0.100 kg/ha) was 8 (8-Approaching complete kill) and the “Assessment (pre-emergence application) STEME” value (Stellaria media [8]; 0.400 kg/ha) was 9 (9-Complete kill). For the same compound, the “Assessment (pre-emergence application) IPOHE” value (Ipomoea hederacea [9]) was 2 (2-Slight effect), the “Assessment (pre-emergence application) GLXMA” value (Glycine max [10]) was 1 (1-Trace effect) and the “Assessment (pre-emergence application) CASOB” value (Cassia obtusifolia [11]; 0.025 kg/ha) was 1 (1-Trace effect). The “Assessment (pre-emergence application) CASOB” value (Cassia obtusifolia [11]; 0.100 kg/ha) was 3 (3-Moderate effect), the “Assessment (pre-emergence application) CASOB” value (Cassia obtusifolia [11]; 0.400 kg/ha) was 3 (3-Moderate effect) and the “Assessment (pre-emergence application) ORYSA” value (Orysa sativa [12]; 0.025 kg/ha) was 0 (0-No effect). For the same compound, the “Assessment (pre-emergence application) ORYSA” value (Orysa sativa [12]; 0.100 kg/ha) was 1 (1-Trace effect), the “Assessment (pre-emergence application) ORYSA” value (Orysa sativa [12]; 0.400 kg/ha) was 1 (1-Trace effect) and the “Assessment (pre-emergence application) ZEAMX” value (Zea mays [13]; 0.025 kg/ha) was 1 (1-Trace effect). For the same compound, the “Assessment (pre-emergence application) ZEAMX” value (Zea mays [13]; 0.100 kg/ha) was 2 (2-Slight effect), the “Assessment (pre-emergence application) ZEAMX” value (Zea mays [13]; 0.400 kg/ha) was 2 (2-Slight effect) and the “Assessment (pre-emergence application) MATIN” value (Matricaria inodora [14]; 0.025 kg/ha) was 2 (2-Slight effect). The “Assessment (pre-emergence application) MATIN” value (Matricaria inodora [14]; 0.100 kg/ha) was 6 (6-Herbicidal effect), the “Assessment (pre-emergence application) MATIN” value (Matricaria inodora [14]; 0.400 kg/ha) was 7 (7-Good herbicidal effect) and the “Assessment (pre-emergence application) LAMPU” value (Lamium purpureum; 0.025 kg/ha) was 7 (7-Good herbicidal effect). For the same compound, the “Assessment (pre-emergence application) LAMPU” value (Lamium purpureum; 0.100 kg/ha) was 8 (8-Approaching complete kill), the “Assessment (pre-emergence application) LAMPU” value (Lamium purpureum; 0.400 kg/ha) was 8 (8-Approaching complete kill) and the “Post-emergence application ALOMY” value (Alopecurus myosuroides [15]; 0.100 kg/ha) was 3 (3-Moderate effect). For the same compound, the “Post-emergence application ALOMY” value (Alopecurus myosuroides [15]; 0.400 kg/ha) was 5 (5-Definite injury), the “Post-emergence application ABUTH” value (Abutilon theophrasti [16]; 0.100 kg/ha) was 3 (3-Moderate effect) and the “Post-emergence application ABUTH” value (Abutilon theophrasti [16]; 0.400 kg/ha) was 5 (5-Definite injury). For the same compound, the “Post-emergence application DIGSA” value (Digitaria sanguinalis [17]; 0.100 kg/ha) was 4 (4-Injury), the “Post-emergence application DIGSA” value (Digitaria sanguinalis [17]; 0.400 kg/ha) was 4 (4-Injury) and the “Post-emergence application GALAP” value (Galium aparine [18]; 0.100 kg/ha) was 4 (4-Injury). The “Post-emergence application GALAP” value (Galium aparine [18]; 0.400 kg/ha) was 6 (6-Herbicidal effect), the “Post-emergence application ECHCG” value (Echinochloa crus-galli [19]; 0.100 kg/ha) was 3 (3-Moderate effect) and the “Post-emergence application ECHCG” value (Echinochloa crus-galli [19]; 0.400 kg/ha) was 5 (5-Definite injury). The “Post-emergence application SETVI” value (Setaria viridis [20]; 0.100 kg/ha) was 5 (5-Definite injury), the “Post-emergence application SETVI” value (Setaria viridis [20]; 0.400 kg/ha) was 7 (7-Good herbicidal effect) and the “Post-emergence application TRZWA” value (Triticum aestivum [21]; 0.100 kg/ha) was 1 (1-Trace effect). The “Post-emergence application TRZWA” value (Triticum aestivum [21]; 0.400 kg/ha) was 2 (2-Slight effect), the “Post-emergence application STEME” value (Stellaria media [22]; 0.100 kg/ha) was 5 (5-Definite injury) and the “Post-emergence application STEME” value (Stellaria media [22]; 0.400 kg/ha) was 6 (6-Herbicidal effect). The “Post-emergence application IPOHE” value (Ipomoea hederacea [23]; 0.100 kg/ha) was 7 (7-Good herbicidal effect), the “Post-emergence application IPOHE” value (Ipomoea hederacea [23]; 0.400 kg/ha) was 8 (8-Approaching complete kill) and the “Post-emergence application GLXMA” value (Glycine max [24]; 0.100 kg/ha) was 4 (4-Injury). The “Post-emergence application GLXMA” value (Glycine max [24]; 0.400 kg/ha) was 4 (4-Injury), the “Post-emergence application CASOB” value (Cassia obtusifolia [25]; 0.100 kg/ha) was 6 (6-Herbicidal effect) and the “Post-emergence application CASOB” value (Cassia obtusifolia [25]; 0.400 kg/ha) was 6 (6-Herbicidal effect). The “Post-emergence application ORYSA” value (Orysa sativa [26]; 0.100 kg/ha) was 1 (1-Trace effect), the “Post-emergence application ORYSA” value (Orysa sativa [26]; 0.400 kg/ha) was 2 (2-Slight effect) and the “Post-emergence application ZEAMX” value (Zea mays [27]; 0.100 kg/ha) was 2 (2-Slight effect). For the same compound, the “Post-emergence application ZEAMX” value (Zea mays [27]; 0.400 kg/ha) was 3 (3-Moderate effect), the “Post-emergence application MATIN” value (Matricaria inodora [28]; 0.100 kg/ha) was 3 (3-Moderate effect) and the “Post-emergence application MATIN” value (Matricaria inodora [28]; 0.400 kg/ha) was 4 (4-Injury).

— patent publication US6872690B2, “Herbicidal 2-alkynyl-pyri (mi) dines” (WYETH, priority 2001, dated 2005)
